Reference: ChEMBL document CHEMBL5380832, “Serine-/Cysteine-Based sp2-Iminoglycolipids as Novel TLR4 Agonists: Evaluation of Their Adjuvancy and Immunotherapeutic Properties in a Murine Model of Asthma” (J Med Chem, 2023)
Calls of active or inactive are those of the source. The calls are words filed in the database; no cut-off is given here.

Columns and labels:
Splenocyte [1] = test: Immunostimulatory activity in wild-type C57BL/6JNarl mouse splenocytes assessed as increase in IFN-gamma expression level at 10 to 25 uM incubated for 48 hrs by ELISA; type: functional, cell-based; conditions: dose 10-25 µM
Splenocyte [2] = test: Immunostimulatory activity in MyD88 knockout C57BL/6JNarl mouse splenocytes assessed as increase in IFN-gamma expression level at 10 to 25 uM incubated for 48 hrs by ELISA; type: functional, cell-based; conditions: dose 10-25 µM
Splenocyte [3] = test: Immunostimulatory activity in MyD88 knockout C57BL/6JNarl mouse splenocytes assessed as increase in IL-6 expression level at 10 to 25 uM incubated for 48 hrs by ELISA; type: functional, cell-based; conditions: dose 10-25 µM
[4] = target: T1, Antigen-presenting glycoprotein CD1d1 (Mus musculus) (UniProt P11609); test: Binding affinity to mouse CD1d in alpha-GalCer stimulated mouse iNKT hybridoma DN3A4-1.2 cells expressing co-cultured with mouse A20 cells expressing mouse CD1d assessed as inhibition of alpha-GlaCer activity by measuring IL-2 expression level at 10 to 25 uM incubated for 24 hrs by ELISA; type: cell-based; conditions: iNKT hybridoma DN3A4-1.2 cell, dose 10-25 µM
T1 sequence (whole entry): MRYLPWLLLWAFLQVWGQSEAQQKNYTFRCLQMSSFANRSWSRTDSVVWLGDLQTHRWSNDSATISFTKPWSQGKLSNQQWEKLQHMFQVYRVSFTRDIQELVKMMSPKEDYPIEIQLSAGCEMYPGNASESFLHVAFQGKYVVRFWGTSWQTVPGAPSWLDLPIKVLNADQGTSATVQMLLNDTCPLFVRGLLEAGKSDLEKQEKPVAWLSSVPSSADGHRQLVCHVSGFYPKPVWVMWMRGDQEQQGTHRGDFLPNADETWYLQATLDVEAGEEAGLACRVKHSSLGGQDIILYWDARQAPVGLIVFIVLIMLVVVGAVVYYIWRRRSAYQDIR

Splenocyte [5] = test: Immunostimulatory activity in wild-type C57BL/6JNarl mouse splenocytes assessed as increase in IL-6 expression level at 10 to 25 uM incubated for 48 hrs by ELISA; type: functional, cell-based; conditions: dose 10-25 µM
Mus musculus [6] = test: Immunostimulatory activity in C57BL/6JNarl mouse assessed as increase in IL-4 expression level in serum at 20 microg/g, ip and measured after 18 hrs by ELISA; type: functional, organism-based; conditions: dose 20.0 µg/g
[7] = target: Toll-like receptor 4 (Homo sapiens) (UniProt O00206); test: Activation of TLR4 signaling in human HEK293 cells assessed as IL-8 expression level at 10 to 25 uM incubated for 24 hrs by ELISA; type: cell-based; conditions: dose 10-25 µM
Toll-like receptor 4 (Homo sapiens), sequence (O00206 whole entry): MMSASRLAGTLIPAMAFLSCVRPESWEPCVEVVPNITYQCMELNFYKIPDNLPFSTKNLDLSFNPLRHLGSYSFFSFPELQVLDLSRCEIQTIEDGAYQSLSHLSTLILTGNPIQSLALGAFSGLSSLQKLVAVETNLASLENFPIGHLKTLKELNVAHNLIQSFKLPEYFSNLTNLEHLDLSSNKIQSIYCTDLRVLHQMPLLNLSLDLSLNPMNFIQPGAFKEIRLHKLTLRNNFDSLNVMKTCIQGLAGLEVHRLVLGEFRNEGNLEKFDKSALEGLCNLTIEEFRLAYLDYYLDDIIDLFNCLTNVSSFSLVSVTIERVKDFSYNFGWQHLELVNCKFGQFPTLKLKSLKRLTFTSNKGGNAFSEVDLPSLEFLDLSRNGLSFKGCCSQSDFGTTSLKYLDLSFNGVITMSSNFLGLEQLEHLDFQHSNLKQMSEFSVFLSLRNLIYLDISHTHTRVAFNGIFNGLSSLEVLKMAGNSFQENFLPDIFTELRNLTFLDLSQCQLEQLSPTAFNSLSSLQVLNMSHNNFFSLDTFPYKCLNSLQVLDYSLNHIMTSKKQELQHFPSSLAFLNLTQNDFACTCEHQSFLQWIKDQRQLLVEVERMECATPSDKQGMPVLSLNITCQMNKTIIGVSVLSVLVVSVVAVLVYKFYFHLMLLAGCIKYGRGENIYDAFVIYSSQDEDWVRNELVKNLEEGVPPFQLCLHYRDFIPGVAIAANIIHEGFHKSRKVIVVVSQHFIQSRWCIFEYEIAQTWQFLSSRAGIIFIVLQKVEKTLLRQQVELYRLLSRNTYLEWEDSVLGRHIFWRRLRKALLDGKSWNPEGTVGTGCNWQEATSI

Mus musculus [8] = test: Immunostimulatory activity in C57BL/6JNarl mouse assessed as increase in IFN-gamma expression level in serum at 20 microg/g, ip and measured after 2 hrs by ELISA; type: functional, organism-based; conditions: dose 20.0 µg/g
Mus musculus [9] = test: Immunomodulatory activity in OVA-sensitized asthmatic BALB/c mouse model assessed as inhibition of methacholine induced airway hyperreactivity by measuring pulmonary resistance at 20 microg/g, ip administered after day 14 OVA sensitization; type: functional; parameters: scale not given: the % may be the effect or the level left; conditions: dose 20 µg/g
BMDC [10] = test: Induction of wild type C57BL/6JNarl mouse BMDC cells maturation assessed as increase in IL-12p40 expression level at 10 to 50 uM by ELISA; type: functional, cell-based; conditions: dose 10-50 µM
PBMC [11] = test: Immunostimulatory activity in human PBMC cells assessed as increase in IFN-gamma expression level at 10 to 25 uM by ELISA; type: functional, cell-based; conditions: dose 10-25 µM
[12] = Induction of MyD88 knockout C57BL/6JNarl mouse BMDC cells maturation assessed as increase in CD86 expression at 50 uM by flow cytometry (Rvb= 15%); type: functional
Mus musculus [13] = test: Immunomodulatory activity in OVA-sensitized asthmatic BALB/c mouse model assessed as reduction in IL-4 expression level in BALF at 20 microg/g, ip administered after day 14 OVA sensitization by ELISA; type: functional, organism-based; conditions: dose 20.0 µg/g
PBMC [14] = test: Immunostimulatory activity in human PBMC cells assessed as increase in IL-6 expression level at 10 to 25 uM by ELISA; type: functional, cell-based; conditions: dose 10-25 µM
[15] = Induction of wild type C57BL/6JNarl mouse BMDC cells maturation assessed as increase in CD86 expression at 50 uM by flow cytometry (Rvb= 10.6%); type: functional
HEK293 = test: Cytotoxicity in human HEK293 cells assessed as reduction in cell viability at 25 uM by MTT assay; type: toxicity, cell-based; conditions: hek293, 25 µM
Mus musculus [16] = test: Immunostimulatory activity in C57BL/6JNarl mouse assessed as increase in IFN-gamma expression level in serum at 20 microg/g, ip and measured after 18 hrs by ELISA; type: functional, organism-based; conditions: dose 20.0 µg/g
[17] = target: T1, Antigen-presenting glycoprotein CD1d1 (Mus musculus); test: Activation of CD1d signaling in mouse iNKT hybridoma DN3A4-1.2 cells co-cultured with mouse A20 cells expressing CD1d assessed as IL-2 expression level at 10 to 25 uM incubated for 24 hrs by ELISA; type: cell-based; conditions: iNKT hybridoma DN3A4-1.2 cell, dose 10-25 µM
[18] = target: Toll-like receptor 2 (Homo sapiens) (UniProt O60603); test: Agonist activity at human TLR2 expressed in human HEK293 cells assessed as IL-8 expression level at 10 to 25 uM incubated for 24 hrs by ELISA; type: cell-based; conditions: dose 10-25 µM
Toll-like receptor 2 (Homo sapiens), sequence (O60603 whole entry): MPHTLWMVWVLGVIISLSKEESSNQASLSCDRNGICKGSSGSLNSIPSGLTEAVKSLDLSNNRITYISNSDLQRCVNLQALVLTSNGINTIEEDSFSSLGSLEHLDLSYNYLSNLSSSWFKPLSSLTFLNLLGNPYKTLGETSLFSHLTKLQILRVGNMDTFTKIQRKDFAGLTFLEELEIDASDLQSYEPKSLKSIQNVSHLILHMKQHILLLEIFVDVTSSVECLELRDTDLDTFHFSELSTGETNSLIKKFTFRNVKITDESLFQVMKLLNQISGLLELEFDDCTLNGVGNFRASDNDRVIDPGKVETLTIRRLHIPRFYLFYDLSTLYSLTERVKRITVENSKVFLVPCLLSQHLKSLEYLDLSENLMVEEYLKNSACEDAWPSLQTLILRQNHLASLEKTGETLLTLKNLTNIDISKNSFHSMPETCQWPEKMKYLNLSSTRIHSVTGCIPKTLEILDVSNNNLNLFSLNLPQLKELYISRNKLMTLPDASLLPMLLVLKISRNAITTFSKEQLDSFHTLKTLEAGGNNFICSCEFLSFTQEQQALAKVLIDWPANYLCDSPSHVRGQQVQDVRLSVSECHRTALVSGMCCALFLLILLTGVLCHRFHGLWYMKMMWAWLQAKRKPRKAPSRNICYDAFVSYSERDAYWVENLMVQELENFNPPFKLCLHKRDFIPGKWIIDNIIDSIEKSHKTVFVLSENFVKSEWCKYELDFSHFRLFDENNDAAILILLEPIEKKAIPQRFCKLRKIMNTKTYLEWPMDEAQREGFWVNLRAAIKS

Mus musculus [19] = test: Anti-inflammatory activity in OVA-sensitized asthmatic BALB/c mouse model assessed as reduction in IL-13 expression level in lung at 20 microg/g, ip administered after day 14 OVA sensitization by ELISA; type: functional, organism-based; conditions: dose 20.0 µg/g
Mus musculus [20] = test: Immunomodulatory activity in OVA-sensitized asthmatic BALB/c mouse model assessed as reduction in IL-4 expression level in lung at 20 microg/g, ip administered after day 14 OVA sensitization by ELISA; type: functional, organism-based; conditions: dose 20.0 µg/g
[21] = Induction of wild type C57BL/6JNarl mouse BMDC cells maturation assessed as increase in CD86 expression at 10 uM by flow cytometry (Rvb= 10.6%); type: functional
Mus musculus [22] = test: Immunostimulatory activity in C57BL/6JNarl mouse assessed as increase in IL-4 mRNA expression level in spleen at 20 microg/g, ip by RT-qPCR analysis; type: functional, organism-based; conditions: dose 20.0 µg/g
Splenocyte [23] = test: Cytotoxicity in wild-type C57BL/6JNarl mouse splenocytes assessed as reduction in cell viability at 25 uM by MTT assay; type: toxicity, cell-based
BMDC [24] = test: Induction of MyD88 knockout C57BL/6JNarl mouse BMDC cells maturation assessed as increase in IL-12p40 expression level at 10 to 50 uM by ELISA; type: functional, cell-based; conditions: dose 10-50 µM
[25] = target: Toll-like receptor 4 (Homo sapiens) (UniProt O00206); test: Agonist activity at human TLR4 expressed in human HEK293 cells co-expressing human MD-2 and CD14 assessed as IL-8 expression level at 10 to 25 uM incubated for 24 hrs by ELISA; type: cell-based; conditions: filed as agonist, dose 10-25 µM
[26] = target: Toll-like receptor 4 (Homo sapiens) (UniProt O00206); test: Activation of TLR4 signaling in human HEK293 cells expressing human MD-2 and CD14 assessed as IL-8 expression level at 10 to 25 uM incubated for 24 hrs by ELISA; type: cell-based; conditions: dose 10-25 µM
Mus musculus [27] = test: Immunostimulatory activity in C57BL/6JNarl mouse assessed as increase in Cd86 mRNA expression level in spleen at 20 microg/g, ip by RT-qPCR analysis; type: functional, organism-based; conditions: dose 20.0 µg/g
Mus musculus [28] = test: Anti-inflammatory activity in OVA-sensitized asthmatic BALB/c mouse model assessed as reduction in IL-13 expression level in BALF at 20 microg/g, ip administered after day 14 OVA sensitization by ELISA; type: functional, organism-based; conditions: dose 20.0 µg/g
Mus musculus [29] = test: Immuno-adjuvant activity in C57BL/6JNarl mouse […] with OT-1 mouse splenocytes assessed as fold increase in OVA-specific CD8+ T cell proliferation at 20 microg/g, ip in presence of OVA (257 to 264 residues) peptide treatment by flow cytometry relative to control; type: functional; conditions: dose 20 µg/g
Mus musculus [30] = test: Immunostimulatory activity in C57BL/6JNarl mouse assessed as increase in IL-4 expression level in serum at 20 microg/g, ip and measured after 2 hrs by ELISA; type: functional, organism-based; conditions: dose 20.0 µg/g

Row | Activity [4] | Activity [7] | Activity [17] | Activity [18] | Activity [25] | Activity [26] | Compound | Activity (Splenocyte [1]) | Activity (Splenocyte [2]) | Activity (Splenocyte [3]) | Activity (Splenocyte [5]) | Activity (Mus musculus [6]) | Activity (Mus musculus [8]) | Activity (Mus musculus [9]) [%] | Activity (PBMC [11]) | Activity (Mus musculus [13]) | Activity (PBMC [14]) | Activity (HEK293) | Activity (Mus musculus [16]) | Activity (Mus musculus [20]) | Activity (Splenocyte [23]) | other results
1 | inactive | inactive | inactive | inactive | Active | inactive | CCCCCCCCCCCCNC(=O)[C@H](CO[C@@H]1[C@H](O)[C@@H](O)[C@H](O)[C@H]2COC(=O)N21)NC(=O)CCCCCCCCCCC | Active | inactive | inactive | Active | Active | Active | 50 | Active | Active | Active | Non-Toxic | Active | Active | Non-Toxic | Activity (BMDC [10]): Dose-Dependent Effect; Activity [12]: 23.8%; Activity [15]: 54.9%; Activity (Mus musculus [19]): Active; Activity [21]: 25.8%; Activity (Mus musculus [22]): Active; Activity (BMDC [24]): inactive; Activity (Mus musculus [27]): Active; Activity (Mus musculus [28]): Active; fold change (FC) (Mus musculus [29]): 5; Activity (Mus musculus [30]): Active
2 | inactive | inactive | inactive | inactive | Active | inactive | CCCCCCCCCCCCNC(=O)[C@H](CO[C@@H]1[C@H](O)[C@@H](O)[C@@H](O)[C@H]2COC(=O)N21)NC(=O)CCCCCCCCCCC | Active | inactive | inactive | Active | Active | Active | 50 | Active | Active | Active | Non-Toxic | Active | Active | Non-Toxic | Activity (Mus musculus [19]): Active; Activity (Mus musculus [28]): Active; fold change (FC) (Mus musculus [29]): 10; Activity (Mus musculus [30]): Active
3 | inactive | inactive | inactive | inactive | Active | inactive | CCCCCCCCCCCCNC(=O)[C@H](CS[C@@H]1[C@H](O)[C@@H](O)[C@H](O)[C@H]2COC(=O)N21)NC(=O)CCCCCCCCCCC | Active | inactive | inactive | inactive | Active | Active | 50 | inactive | Active | inactive | Non-Toxic | Active | Active | Non-Toxic | Activity (Mus musculus [30]): Active

More lines, now with the values behind:

Row | Compound | Activity [4] | Activity [7] | Activity [17] | Activity [18] | Activity [25] | Activity [26] | Activity (Splenocyte [1]) | Activity (Splenocyte [2]) | Activity (Splenocyte [3]) | Activity (Splenocyte [5]) | Activity (Mus musculus [6]) | Activity (Mus musculus [8]) | Activity (Mus musculus [9]) [%] | Activity (PBMC [11]) | Activity (Mus musculus [13]) | Activity (PBMC [14]) | Activity (HEK293) | Activity (Mus musculus [16]) | Activity (Mus musculus [20]) | Activity (Splenocyte [23]) | other results
4 | CCCCCCCCCCCNC(=O)[C@H](CO[C@H]1O[C@H](CO)[C@H](O)[C@H](O)[C@H]1O)NC(=O)CCCCCCCCCCC | inactive | – | – | – | – | – | Active | inactive | inactive | Active | – | – | – | – | – | – | – | – | – | – | –
5 | CCCCCCCCCCCCNC(=O)[C@H](CS[C@@H]1[C@H](O)[C@@H](O)[C@@H](O)[C@H]2COC(=O)N21)NC(=O)CCCCCCCCCCC | inactive | inactive | inactive | inactive | Active | inactive | Active | inactive | inactive | inactive | Active | Active | 50 | inactive | Active | inactive | Non-Toxic | Active | Active | Non-Toxic | Activity (Mus musculus [30]): Active
